This note sets out measurements from patent US20120108563A1, “Methods Of Treating Liposarcoma” (Infinity Pharmaceuticals, Inc., priority 2009, published 2012).

The assay relates to dedifferentiated metastatic liposarcoma. Nature of the assay: Administration of compound 2 to a human subject with dedifferentiated metastatic liposarcoma (imaging assessment, RECIST). Format: in vivo. As to conditions: one human patient. The procedure: A human subject with dedifferentiated metastatic liposarcoma was treated with compound 2 at 400 mg/m^2. The patient received two doses of compound 2 at 400 mg/m^2 during the first cycle of therapy. The patient received two doses at 300 mg/m^2 during the second cycle of therapy. The patient then received 225 mg/m^2 for seven cycles of therapy. […] The patient received a total of 9 cycles of compound 2 with maximal tumor shrinkage occurring after 7 cycles (54% tumor shrinkage).

Setting [1] is: after first cycle of therapy (two doses at 400 mg/m^2).

For the setting “after 7 cycles, of 9 cycles in total”, `C=CCNc1c(O)cc2c(O)c1C[C@@H](C)C[C@H](OC)[C@H](O)[C@@H](C)/C=C(\C)[C@H](OC(N)=O)[C@@H](OC)/C=C\C=C(/C)C(=O)N2.Cl` [compound 2, Hydrochloride Salt of the Hydroquinone of 17-AAG] showed a maximal tumor shrinkage of 54%. Under setting [1], the “imaging assessment of response (RECIST)” value is listed as “stable disease” and the “tumor shrinkage using Response Evaluation Criteria in Solid Tumors (RECIST)” value is 28%. For the same compound, the response achieved result (by the end of cycle 3) is “partial response”. For the same compound, the tumor shrinkage (by the end of cycle 3 (cycle 1 at 400 mg/m^2, cycle 2 at 300 mg/m^2, then 225 mg/m^2)) was 35%.
